Where “and” joins values, the source holds several entries; their conditions need not be identical. Identical values can stand only once. Like-named read-outs stand apart in the source and are kept apart here.
Key:
[1] = Osmolality by vapor pressure osmometer, osmotic coefficient; type: physicochemical
[2] = system: J774 murine macrophage cell line
mouse splenocytes = details: 24 h; for concentration with cytotoxicity (viability diminishes): splenocytes, medium without added buffer
[3] = system: J774 murine macrophage cell line; test: cells; details: Mus musculus, J774, 48 h
[4] = Yoshizawa-Fujita 2007; cited from earlier work
[5] = cited from earlier work
[6] = 350 mg/ml vs 1 mg/ml, aqueous solvent; cited from earlier work
[7] = 100 mM solutions in deionized water
[8] = read-out: Log EC50, μM (Dose Response Model) (converted)

## CCCCC(CC)COP(=O)(O)OCC(CC)CCCC.CN(C)CCO (stereo not shown) [CBEH, Choline bis(2,ethyl hexyl) phosphate]
[1]; 100 mM in water, 1 indicates 100% dissociation
  osmotic coefficient (φ): 0.3
[1]; [7]
  Osmotic Coef., φ in H2O: 0.31
[2]
  anion effect ratio (AR): 113
  shape of dose response: hormetic response
[2]; J774, 48 h, value is the logarithm of EC50, error of last digit in parentheses, equation 1
  Log EC50, μM (Dose Response Model): 2.47 (3) μM
[2]; J774, 48 h, value is the logarithm of EC50, modified (hormesis) model, equation 2, error of last digit in parentheses
  Log EC50, μM (Logistic Model): 2.43 (3) μM
[2]; J774, 48 h exposure
  EC50: 0.3 mM

## C[N+](C)(C)CCO.O=P([O-])(O)O [CDHP, choline dihydrogen phosphate]
Mouse splenocytes; buffered medium ([…] (w/v) sodium bicarbonate)
  concentration range with no cytotoxic activity detected: 0 to 8e+07 nM
Mouse splenocytes
  concentration with cytotoxicity (viability diminishes): > 35000 µM and > 40000 µM
Mouse splenocytes; listed as Choline-DHP
  concentration with cytotoxicity (viability diminishes): > 30000 µM
B16-F10 melanoma cells; buffered medium ([…] (w/v) sodium bicarbonate), 24 h
  concentration range with no cytotoxic activity detected: 0 to 8e+07 nM
B16-F10 melanoma cells; final culture medium concentration
  concentration not cytotoxic: 1000 to 30000 µM
B16-F10 melanoma cells; up to 80 mM C-DHP, DMEM F12 complete medium, 24 h, not buffered
  cytotoxic activity: doesn't demonstrate any significant cytotoxic activity
HT-2 cells
  cytotoxic effect toward HT-2 lymphocytes: no immediate cytotoxic effect
HT-2 cells; mouse
  concentration range not cytotoxic: 0 to 3e+07 nM
[3]
  EC50: 20000 µM
[3]; [8]
  EC50: 20400 µM
[3]; read-out: Log EC50, μM (Logistic Model) (converted)
  EC50: 19100 µM
[4]
  thermal stability by thermal gravimetric analysis: up to 200 °C
[2]
  shape of dose response: hormetic response
[2]; mouse, pH 7.53
  anion effect ratio (AR): 1.7

## C[N+](C)(C)CCO.[Cl-] [Choline chloride, reference compound]
[3]
  EC50: 34000 µM
[3]; [8]
  EC50: 33900 µM
[1]
  Osmotic Coef., φ in H2O: 0.86
[2]
  EC50: 33.7 mM

## [Cl-].[Na+] [Sodium chloride, reference compound]
[1]
  Osmotic Coef., φ in H2O: 0.91
[2]
  EC50: 63 mM and 62.8 mM
  Log EC50, μM (Dose Response Model): 4.8 (1) μM

## OC[C@H]1O[C@H](O[C@H]2O[C@H](CO)[C@@H](O)[C@H](O)[C@H]2O)[C@H](O)[C@@H](O)[C@@H]1O [Trehalose, reference compound]
[3]
  EC50: > 100000 µM
[1]; [7]
  Osmotic Coef., φ in H2O: 1.01

## Choline dibutyl phosphate [CDBP]
[1]
  Osmotic Coef., φ in H2O: 0.90
  osmotic coefficient (φ): 0.9
[2]
  EC50: 9.1 mM
  Log EC50, μM (Dose Response Model): 3.96 (3) μM
  anion effect ratio (AR): 3.7

## cyt C: cytochrome c, protein of earlier literature studies in 80% w/w CDHP
[5]; Fujita 2006, 2007
  thermal transition midpoint temperature before shift: 80 C.°
[5]; in 80% w/w CDHP (Fujita 2005, 2006)
  concentration dissolved: 37000 µg/mL
[5]; stabilized in CDHP, Fujita 2006, 2007
  thermal transition midpoint temperature after shift: 120 C.°

## fibrinogen
[6]
  increase of transition temperature at the higher concentration: 3 °C

## hemoglobin
[6]
  increase of transition temperature at the higher concentration: 8 °C
